According to EPA's ToxRefDB 2:

Legend:
mouse [1] = conditions: Sub-acute repeat dose toxicity, b6c3f1, Oral, Feed, dose end: 14 day, group: systemic
rat [2] = conditions: Carcinogenicity; fischer; Oral; Feed; dose end: 103 week; group: systemic; systemic / in life observation / body weight / body weight
rat [3] = conditions: Sub-acute repeat dose toxicity, fischer, Oral, Feed, dose end: 14 day, group: systemic
rat [4] = conditions: Subchronic oral toxicity in rodents, fischer, Feed, dose end: 13 week, group: systemic, systemic / in life observation / body weight / body weight
mouse [5] = conditions: Carcinogenicity, b6c3f1, Oral, Feed, dose end: 103 week, group: systemic
rat [6] = conditions: Combined chronic toxicity/carcinogenicity; sprague dawley; Oral; Feed; dose end: 2 year; group: systemic; systemic / clinical chemistry / bilirubin / total bilirubin + systemic / hematology / lymphocyte / lymphocyte + systemic / hematology / …
rabbit = conditions: Prenatal developmental toxicity study, new zealand white, Oral, Gavage/Intubation, dose end: 19 GD
mouse [7] = conditions: Carcinogenicity, cd1, Oral, Feed, dose end: 18 month, group: systemic
rat [8] = conditions: Prenatal developmental toxicity study, sprague dawley, Oral, Gavage/Intubation, dose end: 15 GD
mouse [9] = conditions: Subchronic oral toxicity in rodents, cd1, Feed, dose end: 3 month, group: systemic, systemic / clinical chemistry / albumin / albumin + systemic / clinical chemistry / bilirubin / total bilirubin + systemic / organ weight / …
dog [10] = conditions: Chronic toxicity; beagle; Oral; Feed; dose end: 1 year; group: systemic; systemic / pathology microscopic / kidney / fatty change + systemic / pathology microscopic / kidney / lipofuscin deposits + systemic / …
rat [11] = conditions: Multigenerational reproductive toxicity study, sprague dawley, Oral, Feed, dose end: 2 generation
dog [12] = conditions: Subchronic oral toxicity in nonrodent, beagle, Feed, dose end: 90 day, group: systemic, systemic / hematology / [other] / [other] + systemic / hematology / anisocytosis / anisocytosis + systemic / hematology / leukocyte (wbc) …
rat [13] = conditions: Subchronic oral toxicity in rodents, sprague dawley, Feed, dose end: 90 day, group: systemic
[14] = systemic / in life observation / body weight / body weight + systemic / in life observation / body weight / body weight gain
[15] = systemic / in life observation / body weight / body weight + systemic / in life observation / body weight / body weight gain + systemic / in…
[16] = systemic / in life observation / body weight / body weight gain
[17] = systemic / in life observation / body weight / body weight gain + systemic / in life observation / mortality / mortality + systemic / in …
[18] = systemic / pathology microscopic / liver / hepatocellular adenoma + systemic / pathology microscopic / liver / hepatocellular carcinoma
[19] = group: developmental, developmental / developmental malformation / general / runts
[20] = group: developmental, developmental / developmental malformation / general / runts + developmental / developmental malformation / bone / detached + developmental…
[21] = group: maternal, systemic / in life observation / body weight / body weight gain + systemic / in life observation / food consumption / food consumption + …
[22] = group: developmental, developmental / developmental malformation / bone / full supernumerary + developmental / developmental malformation / bone / short …
[23] = group: maternal, systemic / in life observation / body weight / body weight gain
[24] = group: offspring, systemic / in life observation / body weight / offspring (pup) weight
[25] = group: parental, systemic / in life observation / body weight / body weight + systemic / in life observation / body weight / body weight gain
[26] = group: reproductive, reproductive / reproductive performance / fertility / fertility
[27] = systemic / in life observation / body weight / body weight + systemic / in life observation / body weight / body weight gain + systemic / …

C=CCc1ccc(O)c(OC)c1 [Eugenol]
LEL (mouse [1]; [14]): 1880 mg/kg/day | LOAEL (mouse [1]; [15]): > 15000 mg/kg/day | NEL (mouse [1]; [15]): 900 mg/kg/day | NOAEL (mouse [1]; [15]): ≥ 15000 mg/kg/day | LEL (rat [2]): 625 mg/kg/day | LOAEL (rat [2]): 625 mg/kg/day | NEL (rat [2]): 300 mg/kg/day | NOAEL (rat [2]): 300 mg/kg/day | LEL (rat [3]; [16]): 1250 mg/kg/day | NEL (rat [3]; systemic / in life observation / body weight / body weight gain + systemic / in life observation / mortality / mortality): 625 mg/kg/day | LOAEL (rat [3]; [17]): > 5000 mg/kg/day | NOAEL (rat [3]; [17]): ≥ 5000 mg/kg/day | LEL (rat [4]): 300 mg/kg/day | LOAEL (rat [4]): 625 mg/kg/day | NEL (rat [4]): 150 mg/kg/day | NOAEL (rat [4]): 300 mg/kg/day | LOAEL (mouse [5]; systemic / in life observation / body weight / body weight): 900 mg/kg/day | NOAEL (mouse [5]; systemic / in life observation / body weight / body weight + systemic / pathology microscopic / liver / adenoma/carcinoma combined): 450 mg/kg/day | LEL (mouse [5]; [18]): 450 mg/kg/day | NEL (mouse [5]; [18]): < 450 mg/kg/day

COc1nc(C)nc(NC(=O)NS(=O)(=O)c2ccccc2CCC(F)(F)F)n1 [Prosulfuron]
LEL (rat [6]): 0.4 mg/kg/day | LOAEL (rat [6]): 79.9 mg/kg/day | NEL (rat [6]): < 0.4 mg/kg/day | NOAEL (rat [6]): 7.9 mg/kg/day | NEL (rabbit; [19]): 100 mg/kg/day | NOAEL (rabbit; [19]): 100 mg/kg/day | LEL (rabbit; [20]): 200 mg/kg/day | LOAEL (rabbit; [20]): 200 mg/kg/day | LOAEL (rabbit; group: maternal, systemic / in life observation / body weight / body weight gain + systemic / in life observation / food consumption / food consumption): 100 mg/kg/day | LEL (rabbit; [21]): 100 mg/kg/day | NEL (rabbit; [21]): 20 mg/kg/day | NOAEL (rabbit; [21]): 20 mg/kg/day | LOAEL (mouse [7]; [16]): 508 mg/kg/day | NOAEL (mouse [7]; systemic / in life observation / body weight / body weight gain + systemic / hematology / mean corpuscular hemoglobin concentration (mchc…): 100 mg/kg/day | LEL (mouse [7]; systemic / pathology microscopic / liver / hypertrophy): 81.4 mg/kg/day | NEL (mouse [7]; systemic / pathology microscopic / liver / hypertrophy + systemic / hematology / hematocrit (hct) / hematocrit (hct) + systemic / in life …): 1.71 mg/kg/day | LEL (rat [8]; [22]): 400 mg/kg/day | LOAEL (rat [8]; [22]): 400 mg/kg/day | NEL (rat [8]; [22]): 200 mg/kg/day | NOAEL (rat [8]; [22]): 200 mg/kg/day | LEL (rat [8]; [23]): 400 mg/kg/day | LOAEL (rat [8]; [23]): 400 mg/kg/day | NEL (rat [8]; [23]): 200 mg/kg/day | NOAEL (rat [8]; [23]): 200 mg/kg/day | LEL (mouse [9]): 69.3 mg/kg/day | LOAEL (mouse [9]): 69.3 mg/kg/day | NEL (mouse [9]): 2.01 mg/kg/day | NOAEL (mouse [9]): 2.01 mg/kg/day | LEL (dog [10]): 18.6 mg/kg/day | LOAEL (dog [10]): 18.6 mg/kg/day | NEL (dog [10]): 1.95 mg/kg/day | NOAEL (dog [10]): 1.95 mg/kg/day | LEL (rat [11]; [24]): 136 mg/kg/day | LOAEL (rat [11]; [24]): 136 mg/kg/day | NEL (rat [11]; [24]): 13.3 mg/kg/day | NOAEL (rat [11]; [24]): 13.3 mg/kg/day | LEL (rat [11]; [25]): 136 mg/kg/day | LOAEL (rat [11]; [25]): 136 mg/kg/day | NEL (rat [11]; [25]): 13.3 mg/kg/day | NOAEL (rat [11]; [25]): 13.3 mg/kg/day | LEL (rat [11]; [26]): 278 mg/kg/day | LOAEL (rat [11]; [26]): > 278 mg/kg/day | NEL (rat [11]; [26]): 136 mg/kg/day | NOAEL (rat [11]; [26]): ≥ 278 mg/kg/day | LEL (dog [12]): 54 mg/kg/day | LOAEL (dog [12]): 54 mg/kg/day | NEL (dog [12]): 6.5 mg/kg/day | NOAEL (dog [12]): 6.5 mg/kg/day | LEL (rat [13]; [14]): 31 mg/kg/day | LOAEL (rat [13]; [14]): 31 mg/kg/day | NEL (rat [13]; [27]): 3.1 mg/kg/day | NOAEL (rat [13]; [27]): 3.1 mg/kg/day
